From ChEMBL document CHEMBL1201862, “PubChem BioAssay data set” (2004)
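Cultured in 96-well plates, cells were exposed to test compound for 48 hours across five concentrations. Abbreviation: GI50, concentration required for 50% inhibition of growth.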 The source made the active and inactive calls. Rule as the data show it: active = GI50 up to about 1.1 µM and inactive = higher.

Experiments:
Assay in all cases: NCI-60 cell line screen, 48 h
SF-268 = system: SF-268
RXF 393 = system: RXF 393
KM12 = system: KM12
OVCAR-5 = system: OVCAR-5
OVCAR-4 = system: OVCAR-4
786-0 = system: 786-0
MDA-MB-435 = system: MDA-MB-435
UO-31 = system: UO-31
HOP-62 = system: HOP-62
SK-MEL-5 = system: SK-MEL-5
NCI-H23 = system: NCI-H23
MDA-N = system: MDA-N
MOLT-4 = system: MOLT-4
NCI/ADR-RES = system: NCI/ADR-RES
HOP-92 = system: HOP-92
HCT-15 = system: HCT-15
TK-10 = system: TK-10
A498 = system: A498
T47D = system: T47D
U-251 = system: U-251
CAKI-1 = system: CAKI-1
NCI-H460 = system: NCI-H460
HCC 2998 = system: HCC 2998
SK-OV-3 = system: SK-OV-3
SNB-75 = system: SNB-75
Hs-578T = system: Hs-578T
PC-3 = system: PC-3
MDA-MB-231 = system: MDA-MB-231
SNB-19 = system: SNB-19
K562 = system: K562
DU-145 = system: DU-145
COLO 205 = system: COLO 205
NCI-H522 = system: NCI-H522
BT-549 = system: BT-549
SF-539 = system: SF-539
OVCAR-8 = system: OVCAR-8
MCF7 = system: MCF7
SK-MEL-2 = system: SK-MEL-2
SR = system: SR
HCT-116 = system: HCT-116
HL-60 = system: HL-60
M14 = system: M14
SF-295 = system: SF-295
ACHN = system: ACHN
SW-620 = system: SW-620
CCRF-CEM = system: CCRF-CEM
UACC-62 = system: UACC-62
LOX IMVI = system: LOX IMVI
UACC-257 = system: UACC-257
SN12C = system: SN12C
OVCAR-3 = system: OVCAR-3
A549 = system: A549
EKVX = system: EKVX
NCI-H226 = system: NCI-H226
SK-MEL-28 = system: SK-MEL-28
IGROV-1 = system: IGROV-1
Malme-3M = system: Malme-3M
HT-29 = system: HT-29

## CC1OC(O[C@H]2CC[C@]3(C)[C@H]4CC=C5[C@@H]6[C@@H](C)[C@H](C)CC[C@]6(C(=O)O)CC[C@@]5(C(=O)O)[C@]4(C)CC[C@H]3C2(C)C)C(O)C(O)C1O (stereo not given in full)
SF-268
  GI50: > 75 µM (inactive)
RXF 393
  GI50: > 75 µM (inactive)
KM12
  GI50: > 75 µM (inactive)
OVCAR-5
  GI50: > 75 µM (inactive)
OVCAR-4
  GI50: > 75 µM (inactive)
786-0
  GI50: > 75 µM (inactive)
MDA-MB-435
  GI50: > 75 µM (inactive)
UO-31
  GI50: > 75 µM (inactive)
HOP-62
  GI50: > 75 µM (inactive)
SK-MEL-5
  GI50: > 75 µM (inactive)
NCI-H23
  GI50: > 75 µM (inactive)
MDA-N
  GI50: > 75 µM (inactive)
MOLT-4
  GI50: > 75 µM (inactive)
NCI/ADR-RES
  GI50: > 75 µM (inactive)
HOP-92
  GI50: 38.3 µM (inactive)
HCT-15
  GI50: > 75 µM
TK-10
  GI50: > 75 µM (inactive)
A498
  GI50: > 75 µM (inactive)
T47D
  GI50: > 75 µM (inactive)
U-251
  GI50: > 75 µM (inactive)
CAKI-1
  GI50: > 75 µM (inactive)
NCI-H460
  GI50: 50.1 µM (inactive)
HCC 2998
  GI50: > 75 µM (inactive)
SK-OV-3
  GI50: > 75 µM (inactive)
SNB-75
  GI50: > 75 µM (inactive)
Hs-578T
  GI50: > 75 µM (inactive)
PC-3
  GI50: > 75 µM (inactive)
MDA-MB-231
  GI50: > 75 µM (inactive)
SNB-19
  GI50: > 75 µM (inactive)
K562
  GI50: > 75 µM (inactive)
DU-145
  GI50: > 75 µM (inactive)
COLO 205
  GI50: > 75 µM (inactive)
NCI-H522
  GI50: > 75 µM (inactive)
BT-549
  GI50: > 75 µM (inactive)
SF-539
  GI50: > 75 µM (inactive)
OVCAR-8
  GI50: > 75 µM (inactive)
MCF7
  GI50: > 75 µM (inactive)
SK-MEL-2
  GI50: > 75 µM (inactive)
SR
  GI50: > 75 µM (inactive)
HCT-116
  GI50: > 75 µM (inactive)
HL-60
  GI50: 24.8 µM (inactive)
M14
  GI50: > 75 µM (inactive)
SF-295
  GI50: > 75 µM (inactive)
ACHN
  GI50: > 75 µM (inactive)
SW-620
  GI50: > 75 µM (inactive)
CCRF-CEM
  GI50: 28.8 µM (inactive)
UACC-62
  GI50: > 75 µM (inactive)
LOX IMVI
  GI50: > 75 µM (inactive)
UACC-257
  GI50: > 75 µM (inactive)
SN12C
  GI50: > 75 µM (inactive)
OVCAR-3
  GI50: > 75 µM (inactive)

## FC(F)(F)c1ccc2nc3n(c2c1)C(c1c(Cl)cccc1Cl)SC3 (stereo not given)
SF-268
  GI50: 21.6 µM (inactive)
RXF 393
  GI50: 15.2 µM (inactive)
KM12
  GI50: 14.6 µM (inactive)
OVCAR-5
  GI50: 15.9 µM (inactive)
A549
  GI50: 15 µM (inactive)
EKVX
  GI50: 13.8 µM (inactive)
OVCAR-4
  GI50: 15.8 µM (inactive)
786-0
  GI50: 14.7 µM (inactive)
MDA-MB-435
  GI50: 15 µM (inactive)
UO-31
  GI50: 13.8 µM (inactive)
NCI-H226
  GI50: 17.3 µM (inactive)
HOP-62
  GI50: 15.8 µM (inactive)
NCI-H23
  GI50: 15.1 µM (inactive)
MDA-N
  GI50: 11.7 µM (inactive)
MOLT-4
  GI50: 9.48 µM (inactive)
NCI/ADR-RES
  GI50: 11.3 µM (inactive)
HOP-92
  GI50: 4.65 µM (inactive)
HCT-15
  GI50: 14.2 µM
TK-10
  GI50: 18.3 µM (inactive)
A498
  GI50: 19.8 µM (inactive)
T47D
  GI50: 11.2 µM (inactive)
U-251
  GI50: 17.4 µM (inactive)
CAKI-1
  GI50: 14.8 µM (inactive)
NCI-H460
  GI50: 14.5 µM (inactive)
HCC 2998
  GI50: 18.5 µM (inactive)
SK-OV-3
  GI50: 14 µM (inactive)
SK-MEL-28
  GI50: 14.9 µM (inactive)
SNB-75
  GI50: 13 µM (inactive)
Hs-578T
  GI50: 23.1 µM (inactive)
PC-3
  GI50: 14.9 µM (inactive)
MDA-MB-231
  GI50: 18.1 µM (inactive)
SNB-19
  GI50: 18.6 µM (inactive)
DU-145
  GI50: 17 µM (inactive)
NCI-H522
  GI50: 11.9 µM (inactive)
IGROV-1
  GI50: 11.5 µM (inactive)
BT-549
  GI50: 20.7 µM (inactive)
Malme-3M
  GI50: 13.3 µM (inactive)
SF-539
  GI50: 15.7 µM (inactive)
HT-29
  GI50: 15.4 µM (inactive)
OVCAR-8
  GI50: 19.6 µM (inactive)
MCF7
  GI50: 16.1 µM (inactive)
SK-MEL-2
  GI50: 18.2 µM (inactive)
SR
  GI50: 4.24 µM (inactive)
HCT-116
  GI50: 10.5 µM (inactive)
HL-60
  GI50: 2.47 µM (inactive)
M14
  GI50: 16 µM (inactive)
SF-295
  GI50: 16.4 µM (inactive)
ACHN
  GI50: 15.9 µM (inactive)
SW-620
  GI50: 17.8 µM (inactive)
UACC-62
  GI50: 14.5 µM (inactive)
LOX IMVI
  GI50: 27.6 µM (inactive)
UACC-257
  GI50: 14.1 µM (inactive)
SN12C
  GI50: 18.1 µM (inactive)
OVCAR-3
  GI50: 15.6 µM (inactive)
